According to US7001625B2, “Solid phase synthesis of salts of organic acids including butyric acid” (Kemin Industires, Inc., priority 2001, dated 2006):

How the values were obtained:
Ross broilers = assay: Broiler floor pen trial to day 39, formulations with or without calcium butyrate vs Avilamycine; assay type: in vivo
Source text: The objective of this trial was to study and compare two formulations (Table 4) with organic acids and calcium salts of organic acids. One of the formulations included calcium butyrate. Both formulations were compared with a positive and negative control in order to evaluate their possible growth promoting effect evaluated by broiler performance.
Twelve-hundred Ross broilers were divided over 40 floor pens. Each pen contained 15 male and 15 female Ross broilers, one tube feeder and one bell drinker. Feed and water were available ad libitum. All birds received a broiler starter feed from day 0 until day 11 and a broiler finisher meal from day 11 until day 39. […] Pens were assigned to one of four treatments (ten replicate pens for each treatment) using a block randomization. The in feed treatments consisted of: A. no treatment (negative control); B. Avilamycine 10 g/ton (positive control, dosed as Maxus G200 at 50 g/ton); C. Mixture 1, 5000 g/ton and D. mixture 2, 5000 g/ton. In the broiler house the temperature program started on day 0 at 31° C. decreasing 1° C. every two days until 21° C. was reached. The day-night cycle was 23 hours light and 1 hour dark. All birds were weighed at days 0, 11, 25, and 39. Feed usage was measured at days 11, 25 and 39. Live performance data were analyzed as a randomized block design with pen means as the statistical unit. Statistical analysis was performed with Figurepad Instat 2.0 and Microsoft Excel Analysis Toolpak software.

Ross broiler chicks = assay: Broiler pen trial, early chick growth to 15 days (organic acids and sodium butyrate); assay type: in vivo
Source text: In a broiler trial four different treatments were used in order to evaluate the possible synergistic effect between organic acids and sodium butyrate.
This pen trial included eight replicates of four treatments (Table 1). Each pen had 74 mixed sex commercial Ross broiler chicks. Birds were fed a wheat-based diet including enzymes. All birds were weighed on days 1, 5, 10 and 15.

[1] = day 11, Avilamycine 10 g/ton, formulations 5000 g/ton in feed, mean ± SD
[2] = day 25, Avilamycine 10 g/ton, formulations 5000 g/ton in feed, mean ± SD
[3] = day 39, Avilamycine 10 g/ton, formulations 5000 g/ton in feed, mean ± SD
[4] = to 15 days, wheat-based diet, doses as in Table 1

Compound: Avilamycine
- FCR day 11 (Ross broilers; [1]): 1.314 ± 0.034 a
- WG(g) Day 11 (Ross broilers; [1]): 227 ± 7 a g
- Weight gain compared with control groups, in words (Ross broilers; day 25): performed better than the negative control group
- FCR day 25 (Ross broilers; [2]): 1.775 ± 0.135 a
- WG(g) Day 25 (Ross broilers; [2]): 853 ± 44 b g
- FCR day 39 (Ross broilers; [3]): 1.839 ± 0.061 ab
- WG(g) Day 39 (Ross broilers; [3]): 1981 ± 58 b g

Compound: CCCC(=O)[O-].[Na+] [Treatment B, sodium butyrate]
- Feed conversion ratio based on weight gain, statistical comparison with control/other treatments (Ross broiler chicks; day 15, P<0.039 for the combination): not statistically different from the control group
- FCR based on wt gain (Ross broiler chicks; [4]): 1.279a
- Feed consumed (g/bird) (Ross broiler chicks; [4]): 441.3 g/bird
- Weight gain (g/bird) (Ross broiler chicks; [4]): 358.4a g/bird
